Source: patent US20260166211A1, “SYSTEM FOR REMOVING PROTEIN BOUND UREMIC TOXINS DURING HEMODIALYSIS” (University of Washington, priority 2022, published 2026)
Where two headings read alike, the source gives them in different places. Values belong to the compound of their own block, whether it stands above or below them.

Columns and labels:
[1] = target: T1, human albumin indoxyl sulfate complex (HA-IS) (Homo sapiens, UniProt P02768); assay: Adsorption column of CB-functionalized agarose beads with HA-IS, BCA assay of eluent; assay type: binding; conditions: for release of HA bound to the column: release capacity compared to binding capacity
T1 construct: purchased Sigma-Aldrich
From the text: Adsorption column (set-up): Devcon 5-minute epoxy in Dev-tube (ITW Polymer Adhesives, USA) was used on all epoxied parts of the column and was allowed to cure for an hour before use. Agarose beads functionalized with Cibacron Blue dye and suspended in 20% ethanol and 0.1 M KH2PO4 (Blue Sepharose Fast Flow 6, GE Healthcare, USA) was obtained and used as-is.
As shown at FIGS. 5A and 5C, glass tube 15a holds agarose beads functionalized with human albumin binding chemistry Cibacron Blue dye, and a barbed inlet/outlet 15b with Luer lock and needle tip is included to flow a solution in and out of glass tube 15a. An interchangeable solution reservoir feed 15c is included. Specifically, glass tube 15a (inner diameter=4 mm) was cut to 4.1 cm (0.52 mL volume). Two sheets of 10.0 μm pore size Teflon membrane filters (Sterlitech Corp., USA) covered the eluent end of the tube and were sealed around the edge with larger diameter elastic tubing (Tygon SE-200, Saint-Gobain Corp., USA) with excess membrane trimmed by knife. The tubing was secured to the tube via glass-compatible glue (Loctite, Henkel AG & Co. KGaA. Germany) and then epoxied to prevent air leakage. The beads in their suspension fluid (0.739 mL total slurry) were pipetted into the tube on top of the membrane seal and drained to form a bed of beads. The other end of the tube was sealed with membrane filters and tubing in a similar manner. Both ends 15b of the bead bed tube were connected to a Luer lock needle assembly that were epoxied to input tubing to prevent fluid leakage. The solution reservoir 15c included a syringe and a Luer lock connection. The column was suspended vertically and syringe pump (Model NE 300, New Era Pump Systems, Inc., USA) set to 4.0 mL/min with 125-250 μL samples collected at time points with lag time experimentally accounted for. Replacing of solutions occurred by switching out the syringe at the base of the Luer lock needle assembly in 15b, ensuring no air bubbles were introduced.
A phosphate buffer (PB) (pH 7.4) for the adsorption column was prepared to mimic the salt composition of human blood serum. 144.3 mg/L CaCl2), 4.26 g/L Na2HPO4, 612.4 mg/L KH2PO4, 85.7 mg/L MgCl2, and 4.68 g/L NaCl were dissolved in HPLC-grade submicron filtered water under stirring and heat, then filtered through a 10.0 μm membrane filter. NaCl was purchased from EMD Chemicals Inc. (Germany): all other chemicals were obtained from Sigma-Aldrich (USA). NaSCN, indoxyl sulfate, and HA solutions were prepared by simple dissolution in PB. 0.58 mM linoleic acid (LA) solution was prepared by pipetting liquid LA into phosphate buffer and sonicating in 10-minute increments until micelles were formed and evenly distributed, indicated by the solution becoming uniformly cloudy. Solutions of micro BCA protein assay were prepared as instructed in a kit obtained from Thermo Scientific (USA).
In cycles, phosphate buffer, HA-IS complex solution, phosphate buffer, and then release agents (linoleic acid or NaSCN) were pumped through the column and the eluent was collected. CB-functionalized beads were expected to adsorb HA-IS and cause the dissociation of IS from the captured HA. Release agents were expected to cause desorption of captured IS-free HA from the adsorption column. These adsorption and desorption behaviors were studied by optical absorbance at 280 nm of the eluent proportional to HA-IS concentration. […] Then both LA and NaSCN release HA from the adsorption column. […] Without wishing to be bound by theory, it is thought that the delayed LA release was caused by LA micelles dissolving at the buffer solution exchange front where concentration drops below the critical micelle concentration (0.1 mM) giving more free-floating molecules of LA capable of release. This release profile may be optimized by multiple shorter buffer/LA cycles.
Bicinchoninic acid (BCA) assay is a protein sensitive quantification method which was used in this example to measure the concentration of HA. […]

human albumin (HA) [2] = target: T2, human albumin (HA) (Homo sapiens, UniProt P02768); assay: SPR adsorption and desorption cycles of HA on functionalized chips with release agents; assay type: binding; conditions: for release of bound HA, SPR results: CB chips, quoted for comparison with column; for SPR angle shift after HA binding: 2 mg/mL HA, functionalized SPR chip; for Release percentage (highest observed; %) NaSCN (2M): release agent NaSCN 2M; for Release percentage (highest observed; %) SDS (35 mM): release agent SDS 35 mM; for Release percentage (highest observed; %) pH 3.6: release by pH 3.6 buffer
Experimental: SPR tests: A temperature controlled NanoSPR8 Model 481 device with a 4-channel flow cell was used and calibration and warm up were performed (2 hr) prior to tests. Two flow cell channels were set as reference in all tests. Basic solution with surfactant (0.1 M NaOH and 1% SDS). acidic solution (0.1 M HCl), and water were used to clean the testing flow cell and tubing system.
A phosphate buffer solution (PB) for SPR studies was prepared by dissolving 21.48 g Na2HPO4 and 3.11 g KH2PO4 in 1 L Milli-Q water for SPR tests. With this buffer a variety of solutions were prepared: NaCl. Na2SO4 and NaSCN was dissolved in the PB to prepare a 2 M solution. Sodium dodecyl sulfate (SDS) solution of 1 wt % (˜35 mM) was prepared by dissolving SDS in PB with aid of bath sonication. Fatty acid solutions were made by pipetting fatty acid into PB and bath sonicating. Linoleic acid solution (LA) included 1.8 μL of LA and 10 mL PB. Fatty acid mix solution (FA mix) was prepared by dispersing 1.8 μL linoleic acid, 1.05 μL oleic acid and 1.08 μL palmitic acid in 10 mL PB. FA mix was an inhomogeneous emulsion due to the limited solubility of fatty acids even with the aid of bath sonication.
[…] The test was carried out in sequence of HA solution, buffer rinse, releasing agent rinse, buffer rinse, in cycles after an initial PB rinse. Three absorption and desorption cycles were performed on each sample for repeatability/stability. The first two cycles used the same release agents of interest and the third cycle used a reference release agent, usually 2 M NaSCN.
Percentage of HA released by different release agents was calculated by dividing the value difference between the […] adsorption SPR peak shift value (‘Adsorb’ in FIG. 7) and post-release signal value (‘Release’ in FIG. 7) using
SPR shift has a strong dependence on solution conditions, thus one can only compare shift signals after a buffer rinse. The initial sensor baseline is set to zero. For the first cycle, after initial HA exposure and buffer rinse a shift of 0.225 is seen corresponding to full HA coverage. After LA exposure and buffer rinse a drop in shift 0.122 is seen instead of the ideal zero if HA is completely released to initial state. The percent released is calculated as (0.225-0.122)/0.225 or ˜46%. […] Even though the total amount of captured protein remains stable, an increasing amount of un-released protein over cycles was observed. Un-releasable protein was expected due to fouling onto unprotected surface of desorbed surface chemistry and practical limitations of buffer rinse times. […] SPR angle shifts and releasability percent as a function of surface functionalization and release chemical are summarized in Table 2.

[3] = cited from earlier work
HSA = HSA (Homo sapiens, UniProt P02768); assay: HSA adsorption/desorption on Cibacron blue column with LA solutions of varying concentration; assay type: binding; conditions: LA 8 μl/10 ml, HSA 40 mg/ml, CB beads
Experimental: To test the aforementioned hypotheses, a series of experiments were conducted using LA solutions of varying concentrations and HSA solutions with a concentration of 40 mg/ml. […] The first adsorption-desorption cycle was executed with phosphate buffer serving as a mock release agent to reveal the actual desorption strength of the release agent. The amount of HSA released by LA was quantified by integrating the area beneath the release session curve and subtracting the baseline corresponding to the phosphate buffer rinse. This value represents the fraction of HSA that can be manipulated by the LA solution in a reversible manner. In this context, the adsorption of this fraction of HSA onto the Cibacron blue functionalized beads (CB beads) was considered reversible by LA. Subsequently, the reversible adsorption capacity of CB beads and the albumin release peak height, from FIG. 11A, were plotted against the LA solution concentration, as shown in FIG. 11B.

human albumin (HA) [4] = target: T2, human albumin (HA); assay: SPR Langmuir isotherm of HA adsorption on ligand-functionalized sensor chips; assay type: binding; conditions: read-out: Kd of HA on SPR sensor modified with different ligands
Experimental: Langmuir Isotherm: HA was dissolved in PB to make solutions with concentration range from 0.1 mg/mL to 2.0 mg/mL for adsorption study. Such HA solutions were pumped through the flow cell in low to high sequence with 20 min. adsorption time for each solution. Between each HA adsorption session, buffer was used to rinse off unbound protein residue for 20 min. PB signal from selected reference channels was used as baseline.
Prior to further analysis, the raw SPR data, absolute maximum absorption angle versus time, was referenced to a baseline reading. A 3-point running average was applied to reduce noise.
The values of SPR signal shift (in degrees) induced by HA solutions of different concentrations were manually identified. For Langmuir adsorption model fitting, the SPR signal shifts were converted to fractional occupancy of adsorption sites (θ) by assuming 0% and 100% site occupancy under 0 mg/mL and 2 mg/mL HA solution treatment, respectively. After plotting the concentration on x-axis and θ on y-axis, the data was fitted to a Langmuir isotherm model with equation
The adsorption constant, Ka, was obtained under the best fitting condition. The desorption constant.

[5] = with respect to a monolayer protein binding signal strength

T1 sequence (P02768 25-609, one chain of several): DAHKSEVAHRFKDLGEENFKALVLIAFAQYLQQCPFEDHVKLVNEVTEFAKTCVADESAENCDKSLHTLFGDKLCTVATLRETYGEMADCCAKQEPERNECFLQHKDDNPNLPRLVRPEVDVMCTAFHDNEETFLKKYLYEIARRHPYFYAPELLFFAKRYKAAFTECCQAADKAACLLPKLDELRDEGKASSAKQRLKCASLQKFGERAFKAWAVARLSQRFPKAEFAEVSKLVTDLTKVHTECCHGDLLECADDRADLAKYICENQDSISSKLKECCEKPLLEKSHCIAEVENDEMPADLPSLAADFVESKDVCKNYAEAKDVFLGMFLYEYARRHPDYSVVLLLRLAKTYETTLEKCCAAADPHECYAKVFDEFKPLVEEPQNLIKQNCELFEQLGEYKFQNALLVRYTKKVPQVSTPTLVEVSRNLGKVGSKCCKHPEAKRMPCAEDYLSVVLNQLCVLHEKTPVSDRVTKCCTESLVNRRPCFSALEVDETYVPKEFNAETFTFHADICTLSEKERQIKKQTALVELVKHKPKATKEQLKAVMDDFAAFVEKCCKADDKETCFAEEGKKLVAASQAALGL
T2 sequence (P02768 25-609): as the sequence (P02768 25-609, one chain of several) above
Sequence of HSA (P02768 25-609): as the sequence (P02768 25-609, one chain of several) above

SMILES: N#C[S-].[Na+] [NaSCN, reference compound]
release capacity ([1]; cycle 3, CB-agarose bead column, BCA assay): 0.292 μmol HA/mL beads
release of HA bound to the column [1]: ≥ 79%
release of bound HA, SPR results (human albumin (HA) [2]; SPR): 65%

SMILES: CCCCC/C=C\C/C=C\CCCCCCCC(=O)O [LA, linoleic acid]
release capacity ([1]; CB-agarose bead column, summary b116): ~0.2 μmol HA/mL beads
release capacity ([1]; CB-agarose bead column, summary b116, per mL beads): 13.5 mg/mL
release amounts ([1]; Cibacron blue agarose beads, plasma compatible linoleic acid as release agent): 0.23 μmol HA/mL beads
release capacity ([1]; cycle 1, CB-agarose bead column, BCA assay): 0.177 μmol HA/mL beads
release capacity ([1]; cycle 2, CB-agarose bead column, BCA assay): 0.232 μmol HA/mL beads
release of HA bound to the column [1]: at least 47%
HSA desorption capacity, previous study ([1]; value from the previous study): 15.3 mg/ml beads
solubility in water [3]: insoluble
release of bound HA, SPR results (human albumin (HA) [2]; SPR): 31%
albumin release capacity on CB surface (human albumin (HA) [2]; SPR, CB surface, concentrations of about 0.5 μg/mL): 44.1%
HSA desorption capacity (HSA): 19.44 mg/ml beads

SMILES: N[C@@H](Cc1c[nH]c2ccccc12)C(=O)O [Tryptophan (NH2 term), Tryptophan]
SPR angle shift after HA binding (human albumin (HA) [2]): ~0.17 °
SPR angle shift after HA binding (human albumin (HA) [2]; listed as tryptophan of —NH2 terminus): 0.170 °
Release percentage (highest observed; %) NaSCN (2M) (human albumin (HA) [2]): 15.0%
Release percentage (highest observed; %) SDS (35 mM) (human albumin (HA) [2]): 0%
Release percentage (highest observed; %) pH 3.6 (human albumin (HA) [2]): 0%

More lines, now with the values ahead:

SPR angle shift after HA binding (human albumin (HA) [2]): ~0.11 °
SPR angle shift after HA binding (human albumin (HA) [2]; listed as Octane): 0.110 °
Release percentage (highest observed; %) NaSCN (2M) (human albumin (HA) [2]): 51.4%
Release percentage (highest observed; %) SDS (35 mM) (human albumin (HA) [2]): 29.5%
SMILES: CCCCCCCC [Octane (C8; Alkane), Octane]

Kd (human albumin (HA) [4]; HA 0.1-2.0 mg/mL in PB, Langmuir fit, Kd=1/Ka): 1100 nM
SPR angle shift after HA binding (human albumin (HA) [2]): ~0.19 °
SPR angle shift after HA binding (human albumin (HA) [2]; listed as DB71): 0.19 °
Release percentage (highest observed; %) NaSCN (2M) (human albumin (HA) [2]): 0%
Release percentage (highest observed; %) SDS (35 mM) (human albumin (HA) [2]): 0%
SMILES: Nc1ccc2c(O)c(N=Nc3ccc(N=Nc4ccc(N=Nc5cc(S(=O)(=O)[O-])c6cccc(S(=O)(=O)[O-])c6c5)c5ccccc45)c4ccc(S(=O)(=O)[O-])cc34)c(S(=O)(=O)[O-])cc2c1.[Na+].[Na+].[Na+].[Na+] [Direct Blue 71]

Kd (human albumin (HA) [4]): 3000 nM
SPR angle shift after HA binding (human albumin (HA) [2]; listed as CB): 0.25 °
SPR angle shift after HA binding (human albumin (HA) [2]; listed as Cibacron Blue (CB)): ~0.25 °
monolayer averaged SPR signal shift (human albumin (HA) [2]; average over chips (CB n=76; capric acid n=50)): 0.23 °
Release percentage (highest observed; %) Na2SO4 (2M) (human albumin (HA) [2]; release agent Na2SO4 2M): 12.7%
Release percentage (highest observed; %) NaCl (2M) (human albumin (HA) [2]; release agent NaCl 2M): 34%
Release percentage (highest observed; %) NaSCN (2M) (human albumin (HA) [2]): 78.0%
Release percentage (highest observed; %) SDS (35 mM) (human albumin (HA) [2]): 93.0%
Release percentage (highest observed; %) FA mix (human albumin (HA) [2]; release agent fatty acid mix): 49.5%
Release percentage (highest observed; %) lbp (0.1 mM) (human albumin (HA) [2]; release agent lbp 0.1 mM): 0%
Release percentage (highest observed; %) LA (0.6 mM) (human albumin (HA) [2]; release agent linoleic acid 0.6 mM): 44.1%
Release percentage (highest observed; %) pH 3.6 (human albumin (HA) [2]): 0%
Human serum albumin desorption percent, release agent Fatty Acid Mix (human albumin (HA) [2]; [5]): 37.4 ± 14.2%
Human serum albumin desorption percent, release agent Linoleic Acid (human albumin (HA) [2]; [5]): 31.0 ± 18.9%
Human serum albumin desorption percent, release agent NaSCN (human albumin (HA) [2]; [5]): 65.0 ± 12.3%
SMILES: Nc1c(S(=O)(=O)O)cc(Nc2ccc(Nc3nc(Cl)nc(Nc4ccccc4S(=O)(=O)O)n3)c(S(=O)(=O)O)c2)c2c1C(=O)c1ccccc1C2=O [Cibacron Blue]

SPR angle shift after HA binding (human albumin (HA) [2]): ~0.19 °
SPR angle shift after HA binding (human albumin (HA) [2]; listed as tryptophan of —COOH terminus): 0.19 °
Release percentage (highest observed; %) NaSCN (2M) (human albumin (HA) [2]): 0%
Release percentage (highest observed; %) pH 3.6 (human albumin (HA) [2]): 0%
SMILES: N[C@@H](Cc1c[nH]c2ccccc12)C(=O)O [Tryptophan (COOH term), Tryptophan]
